In article PMC11284787, “Ligand-Directed Labeling of the Adenosine A1 Receptor in Living Cells” (Journal of Medicinal Chemistry, 2024):

Key:
[1] = tested on: T1, TS-SNAP-A1AR; assay: SDS-PAGE in-gel fluorescence of labeled TS-SNAP-A1AR; type: cell-based; settings: HEK293G TS-SNAP-A1AR cells, 300 nM 11 or 130 nM 12 (then 1 μM Met-Tet-SulfoCy5), 2 h; band at ca. 59.1 kDa
T1 construct: signal peptide of the murine 5HT3A receptor (N); expressed in transfected cells; receptor purified on MagStrep beads after labelling in cells
Experimental: (§1) Figure 3 Molecular pharmacology and biochemical characterization of 11 and 12. NanoBRET ligand-binding data were measured in HEK293 cells stably expressing the human NL-A1AR (A–C) or rat NL-A1AR (D–F). […] Data were normalized to maximal BRET signals in the absence of unlabeled competing ligands (total binding, TB). (C, F) NanoBRET dissociation kinetics experiments with 11 (SulfoCy5) performed in human and rat NL-A1AR HEK293T cells, respectively. Cells were treated with 250 nM 11 (SulfoCy5, lilac open circles) for 5 h and CA200645 (black open triangles) for 2 h. […] TS-SNAP-A1AR was purified and separated on an SDS-PAGEgel gel, and direct Cy5 fluorescence was visualized using in-gel fluorescence. […]
(§2) The small reduction in the BRET signal observed toward the end of the reads could be mostly likely ascribed to substrate (furimazine) consumption. […] To confirm covalent labeling of A1AR by 11 and 12, HEK293G cells stably expressing a Twin-Strep-SNAP-A1AR(TS-SNAP-A1R) construct were treated with 11 or 12 prior to purification, separation by sodium dodecyl sulfate-polyacrylamide gel electrophoresis (SDS-PAGE) and visualization of labeled samples by in-gel fluorescence (Figure 3G). […]
Autocorrelation curves (AC) were constructed from fluorescence fluctuation traces and analysed within Zen Black (2012) software. […]

[2] = biological target: T2, NL-hA1AR (Homo sapiens, UniProt P30542); assay: NanoBRET saturation ligand-binding assay, NL-hA1AR
T2 construct: expressed in transfected cells
T2 sequence (P30542 1-326): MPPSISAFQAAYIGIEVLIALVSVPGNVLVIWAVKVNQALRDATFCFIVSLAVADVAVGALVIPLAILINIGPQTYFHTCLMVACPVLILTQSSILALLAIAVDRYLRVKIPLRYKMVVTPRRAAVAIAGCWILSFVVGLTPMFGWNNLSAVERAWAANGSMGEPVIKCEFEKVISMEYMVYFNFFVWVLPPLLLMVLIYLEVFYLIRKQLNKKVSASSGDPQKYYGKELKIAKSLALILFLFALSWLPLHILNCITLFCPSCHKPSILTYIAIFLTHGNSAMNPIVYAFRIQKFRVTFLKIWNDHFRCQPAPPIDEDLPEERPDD
Experimental: The ligand-binding properties of the newly synthesized probes were assessed in a series of pharmacological assays. Initially, a NanoBRET[47],[48] saturation binding experiment was used to evaluate the binding affinity of ligand-directed probes functionally labeled with the SulfoCy5 fluorophore (11) to the NanoLuc(NL)-tagged[49] hA1AR expressed in HEK293T cells.
NanoBRET binding assay. All NanoBRET experiments were performed in white flat […]
(§3) 37 °C for kinetic binding experiments. Emissions were read at 420 nm (80 nm bandpass; […]
the SulfoCy5-labelled probe. […]
nm emission by the 420 nm emission. The term “raw BRET ratio” refers to the unprocessed data as no background ratio has been subtracted. In all NanoBRET binding […]
competitive antagonist selective for the adenosine receptor under investigation […]
MRS1220 for the A3AR). HEK293T cells stably/transiently expressing Nluc-AR were […]
were incubated for 1 h at 37 °C. […]
NanoBRET saturation binding assay. Total and nonspecific saturation binding curves were fit simultaneously using the following equation: […]

[3] = tested on: T3, rat NL-A1AR; assay: NanoBRET dissociation kinetics, rat NL-A1AR HEK293 cells; type: binding; settings: rat NL-A1AR HEK293 cells prelabeled with 250 nM, 10 μM DPCPX
T3 construct: expressed in transfected cells
Experimental: Figure 3 Molecular pharmacology and biochemical characterization of 11 and 12. NanoBRET ligand-binding data were measured in HEK293 cells stably expressing the human NL-A1AR (A–C) or rat NL-A1AR (D–F). […] Data were normalized to maximal BRET signals in the absence of unlabeled competing ligands (total binding, TB). (C, F) NanoBRET dissociation kinetics experiments with 11 (SulfoCy5) performed in human and rat NL-A1AR HEK293T cells, respectively. Cells were treated with 250 nM 11 (SulfoCy5, lilac open circles) for 5 h and CA200645 (black open triangles) for 2 h. […] Each data point represents the combined mean ± SEM from n = 5 (A, C), n = 4 (B, D), and n = 3 (E, F) experiments, each one performed in triplicate. (G) HEK293G cells stably expressing TS-SNAP-A1AR were treated with 300 nM 11 or 130 nM 12 in serum-free media for 2 h at 37 °C and 5% CO2. For samples treated with compound 12, the labeling solution was removed and immediately replaced with 10 mL of serum-free media containing 1 μM Met-Tet-Cy5 and incubated at 37 °C and 5% CO2 for a further 15 min. Untreated cells were used as a control. TS-SNAP-A1AR was purified and separated on an SDS-PAGEgel gel, and direct Cy5 fluorescence was visualized using in-gel fluorescence. The gel shown is representative of three independent experiments. […]
as §3

[4] = biological target: T2, NL-hA1AR; assay: NanoBRET dissociation kinetics, NL-hA1AR HEK293T cells; type: binding; settings: cells prelabeled with 250 nM for 5 h, BRET monitored 60 min
Experimental: as §1, §2, §3

SMILES | in-gel Cy5 fluorescence band of SulfoCy5-labeled TS-SNAP-A1AR [1] | Kd ([2]; HEK293T cells stably expressing NL-hA1AR, 1 h 37 °C, mean ± SEM, read-out: affinity values pKD, NL-hA1AR (converted)) [nM] | greater affinity for the NL-A1AR compared to the NL-A2AAR (saturation binding) ([2]; selectivity from pKD values) [fold] | ability to covalently transfer the fluorophore to the A1AR (dissociation experiment) [3] | change in BRET signal after addition of 10 μM DPCPX [4]
CCCCn1c(=O)c2[nH]c(C34CCC(C(=O)NCCNC(=O)CCNC(=O)c5ccc(OC(=O)CCCCC[N+]6=C(/C=C/C=C/C=C7/N(C)c8ccc(S(=O)(=O)O)cc8C7(C)C)C(C)(C)c7cc(S(=O)(=O)[O-])ccc76)c(F)c5)(CC3)CC4)nc2n(CCCC)c1=O [Compound 11, 1-(6-(4-((3-((2-(4-(1,3-Dibutyl-2,6-dioxo-2,3,6,7-tetrahydro-1H-purin-8-yl)bicyclo[2.2.2]octane-1-carboxamido)ethyl)amino)-3-oxopropyl)carbamoyl)-2-fluorophenoxy)-6-oxohexyl)-3,3-dimethyl-2-((1E,3E)-5-((E)-1,3,3-trimethyl-5-sulfoindolin-2-ylidene)penta-1,3-dien-1-yl)-3H-indol-1-ium-5-sulfonate] | strong band | 30.9 | 7 | could be retained across species | very little change in the BRET signal
CCCCn1c(=O)c2[nH]c(C34CCC(C(=O)NCCNC(=O)CCNC(=O)c5ccc(OC(=O)CCC(=O)NCCOCCOCCNC(=O)O[C@H]6CC/C=C/CCC6)c(F)c5)(CC3)CC4)nc2n(CCCC)c1=O [Compound 12, 4-((3-((2-(4-(1,3-Dibutyl-2,6-dioxo-2,3,6,7-tetrahydro-1H-purin-8-yl)bicyclo[2.2.2]octane-1-carboxamido)ethyl)amino)-3-oxopropyl)carbamoyl)-2-fluorophenyl (R,E)-1-(Cyclooct-4-en-1-yloxy)-1,12-dioxo-5,8-dioxa-2,11-diazapentadecan-15-oate] | strong band | – | – | – | –
